Entries after “also recorded” stand apart in the source; their conditions may differ.
Columns and labels:
H460 cells [1] = experiment: Apoptosis in H460 cells (caspase 3 cleavage, PARP cleavage, nuclear morphology); format: cell-based, human
Description: Cell cycle arrest triggers programmed cell death in many tumor cell lines.
As cell cycle arrest is incompatible with survival in many tumor cell lines the cellular response of H460 cells to the treatment with dsRNA si5 was investigated.
Survival assay and apoptosis scoring.

cdc25B = experiment: Nuclear cdc25B level in NCI-H460 cells; format: cell-based, human
Description: (§1) P38 MAPK as well as SPK/JNK have a large number of downstream targets. Amongst these, the phosphorylation of the cell cycle control phosphatase cdc25 (Bulavin et al., 2001; Goss et al., 2003) are of particular interest, as these phosphorylations have the potential to transduce an immediate and direct effect of TAK1-D activation to the cell cycle. […] In contrast, both cdc25A and cdc25B were found in the nucleus and therefore capable of cell cycle control. […] The occurrence of this shifted form of cdc25A is indicative of phosphorylation and inactivation of cdc25A (Zhao et al., 2002). The amount of cdc25B in the nucleus decreases with kinetics similar to the phosphorylation of cdc25A, indicative for a phosphorylation dependent translocation and proteolytic digestion of cdc25B (Cans et al., 1999). Therefore, it can be concluded that activation of TAK1-D in NCI-H460 cells leads to an inactivation of cdc25A and cdc25B through p38 MAPK and SAPK/JNK mediated phosphorylation and proteolytic destruction.

H460 cells [2] = experiment: BrdU pulse labeling and flow cytometry of H460 cells; format: cell-based, human
Experimental: FIGS. 10A-D: Reaction of NCI-H460 cells to activation of p38 MAPK and SAPK/JNK. (FIG. 10A) BrdU labeling was used to determine the amount of NCI-H460 cells in the S phase of the cell cycle. Cells were pulse labeled with 100 μM BrdU for 15 minutes (0 and 4 h) or 10 μM for 1 h (24 h). Dot blots show DNA content versus BrdU signal. The number of S phase cells decreases within a few hours after treatment of cells with siRNA si5. (FIG. 10B) Flow cytometry dot blots, showing the cellular DNA content versus the amount of cleaved Caspase 3. Within 24 h after exposure to siRNA si5 cells in G1 as well as in the S phase of the cell cycle show Caspase 3 activation. (FIG. 10C) Activation of Caspase 3 leads to PARP cleavage and to (FIG. 10D) nuclear chromatin condensation visible in Hoechst 33342 stained NCI-H460 cells, typical of apoptosis.
To test this hypothesis, H460 cells were pulse labeled with BrdU for 15 min at various time points after treatment with siRNA si5 and analyzed by flow cytometry immediately afterwards. […] In particular, it can be seen that the fraction of cells in the S phase of the cell cycle drops from 48% in untreated cells to 27% 4 h after incubating the cells with 20 nM siRNA si5.

cdc25A = cdc25A phosphorylation in nuclei of NCI-H460 cells; format: cell-based, human; conditions: 2 h
Description: as §1

TAK1-A = experiment: Autophosphorylation of the other (long) Tak1 splicing variants in H460 cells; format: cell-based, human; conditions: siRNA 20 nM
Description: In contrast only the long form (TAK1-A) is able to activate the NFκB pathway through phosphorylation of IKKα/β.

TAK1-D = biological target: T1, TAK1-D (Homo sapiens, UniProt O43318); experiment: Binding of radiolabeled siRNAs to immobilized FLAG-TAK1-D; set-up: made in house; conditions: kinase assay buffer conditions, 3 experiments
T1 sequence (O43318 1-491 isoform O43318-4): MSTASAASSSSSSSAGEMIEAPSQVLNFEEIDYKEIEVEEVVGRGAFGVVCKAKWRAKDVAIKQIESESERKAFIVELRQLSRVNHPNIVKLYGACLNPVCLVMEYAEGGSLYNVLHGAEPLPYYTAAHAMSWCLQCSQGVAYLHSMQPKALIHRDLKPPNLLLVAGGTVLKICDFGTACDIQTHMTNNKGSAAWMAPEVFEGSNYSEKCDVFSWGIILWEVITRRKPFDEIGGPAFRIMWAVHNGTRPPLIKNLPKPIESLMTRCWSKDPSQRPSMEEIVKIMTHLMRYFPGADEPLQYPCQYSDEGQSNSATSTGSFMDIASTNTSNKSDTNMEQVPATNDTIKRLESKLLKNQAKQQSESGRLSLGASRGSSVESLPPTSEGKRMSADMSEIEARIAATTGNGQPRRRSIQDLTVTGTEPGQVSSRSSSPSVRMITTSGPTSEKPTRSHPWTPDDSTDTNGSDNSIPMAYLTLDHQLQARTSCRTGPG
Description: FIGS. 2A-C: Effect of dsRNAs on the activity of purified recombinant TAK1-D protein. (FIG. 2A) In vitro kinase assay showing the activation of TAK1-D autophosphorylation by siRNA si5. FLAG-tagged TAK1-D and His-tagged TAB1 were coexpressed in Hela cells and purified by immunoprecipitation with anti FLAG antibody. […] Error bars indicate the standard error of 3 experiments.
To verify if siRNA si5 indeed interacts with TAK1-D directly, the activation of the kinase was studied in vitro using purified proteins. […] To test whether the increased activation of the TAK1-D/TAB1 complex by siRNA si5 is caused by an increased affinity of the RNA molecule to the kinase, binding of radiolabeled siRNAs to immunoprecipitated FLAG tagged TAK1-D was measured. In FIG. 2C the amount of RNA bound to immobilized FLAG-TAK1-D is given.

[3] = tested on: normal human skin fibroblasts; experiment: Crystal Violet staining of normal human skin fibroblasts; format: cell-based; conditions: up to 20 nM, 48 h
Experimental: In order to obtain preliminary data describing the response of normal tissue cells to dsRNA mediated Tak1-D activation normal human fibroblasts as well as human bronchial epithelial cells (HBEC) were plated into 12-well multiwell plates, treated with siRNA si5 or si6 in different concentrations and stained with Crystal Violet 48 h later. […] […].

si5: 21-mer siRNA against TLK1 mRNA: GGCUUUUGACCUUUAUGAAtt (SEQ ID NO: 2) / ttCCGAAAACUGGAAAUACUU (SEQ ID NO: 3) (sense GGCUUUUGACCUUUAUGAATT; antisense TTCCGAAAACUGGAAAUACUU; chemistry not given here; one strand is listed 3' to 5')
cellular apoptotic response with inactivated Tak1-D catalytic activity (H460 cells [1]; H460, adenoviral K63W, 48 h after siRNA): significantly reduced
nuclear morphology, HOECHST 33342 staining (H460 cells [1]; H460 cells, 48 h): typical apoptotic chromatin condensation and fragmentation
time until PARP cleavage (H460 cells [1]; H460 cells, Western blot): ≤ 24 h
caspase 3 cleavage (H460 cells [1]; NCI-H460, 24 h after treatment): cells from the G1 and the S phase of the cell cycle show caspase 3 cleavage
fraction of G1 and S phase cells staining positive for cleaved caspase 3 (H460 cells [1]; NCI-H460, 48 h, compared with 24 h): higher
amount of cdc25B in the nucleus (cdc25B): decreases
fraction of cells in the S phase of the cell cycle (H460 cells [2]; H460, 4 h after 20 nM, untreated cells 48%): 27%
DNA synthesis (H460 cells [2]; H460, 24 h after treatment): ceased almost completely
cell cycle arrest (H460 cells [2]; NCI-H460, first 24 h): arrest of NCI-H460 cells in the G1, S, and G2 phase of the cell cycle
phosphorylation of nuclear cdc25A (intensity of the upper band) (cdc25A): increases in intensity within 2 h; also recorded: increased phosphorylation as early as 2 h
activating autophosphorylation of the other three splicing variants of Tak1 (TAK1-A): does not induce activating autophosphorylation
amount of RNA bound to immobilized FLAG-TAK1-D (TAK1-D): significantly greater; also recorded: increased binding
growth inhibitory or cytotoxic effect [3]: no growth inhibitory or cytotoxic effect could be observed; also recorded: no cytotoxicity or growth delay

— patent US8163709B2, “TAK1-D mediated induction of cell death in human cancer cells by specific sequence short double-stranded RNAS” (Board of Regents of the University of Texas System, priority 2008, dated 2012)
